Results reported in patent publication US11369579B2 (SyneuRx International (Taiwan) Corp., priority 2016, dated 2022).
Entries after “also recorded” stand apart in the source; their conditions may differ.

Experiments:
[1] = Slurry conversion of polymorphic forms / thermodynamic stability comparison
[2] = Stability test under high humidity condition (>90% RH, 5 days), analyzed by XRPD; conditions: 500 mg

| SMILES | Thermodynamic stability among forms of sodium benzoate [1] | Change of XRPD pattern [2] |
| --- | --- | --- |
| O=C([O-])c1ccccc1.[Na+] [sodium benzoate from Formosa Laboratories] | less thermodynamically stable | significant changes; also recorded: changes in XRPD |
| O=C([O-])c1ccccc1.[Na+] [sodium benzoate from Merck, sodium benzoate] | less thermodynamically stable | significant changes; also recorded: changes in XRPD |
